Measured values: patent publication US20260241041A1, “FLUORESCENCE IMAGING REAGENT FOR LIPID DROPLETS IN TISSUES AND CELLS” (NATIONAL UNIVERSITY CORPORATION GUNMA UNIVERSITY, priority 2021, published 2026)

Key:
[1] = green fluorescence; cited from earlier work
[2] = test system: lipid droplets in HeLa cells; experiment: Co-staining with BODIPY 493/503 for lipid droplet selectivity; format: cell-based; conditions: 400 μM oleic acid, 100 nM, 30 min, excitation 430 nm, observation 460-500 nm
Experimental: In order to clarify the lipid droplet selectivities of DBC30, DBC30-Bu, and DBC30-Ph, co-staining experiments were carried out with BODIPY 493/503, which is a commercially available green fluorescent lipid droplet reagent (FIGS. 8 to 10). Each fluorescent reagent was added to a final concentration of 100 nM to HeLa cells cultured for 48 hours in the presence of 400 μM oleic acid. Culture was then performed for 30 minutes, and the cultured cells were irradiated with an excitation light required for the imaging, followed by observation. For DBC30, DBC30-Bu and DBC30-Ph, the excitation wavelength was 430 nm, and the observation wavelength was 460-500 nm. For BODIPY 493/503, the excitation wavelength was 488 nm, and the observation wavelength was 510 to 560 nm.

[3] = Solubility / precipitation in physiological saline; format: physicochemical
Experimental: (§1) Fluorescence imaging of lipid droplets in a tissue, and of an adipose tissue, using DBC30, DBC30-Bu, or DBC30-Ph is described below. Since the DBC30 series has remarkably low solubility in water (physiological saline), they cannot be easily directly dissolved. […] Therefore, they cannot be administered to mice. In view of this, the 5 mM stock solution was added (at a volume ratio of 10%) to physiological saline supplemented with 10% bovine serum albumin. […] Regarding administration of MNs-NB, a stock solution in DMSO is directly administered to mice. Since administration of DMSO may cause death of mice from shock, the administration method in the present invention is thought to be a safer method. Here, 100 to 200 μL of 500 μM solution (50 to 100 nmol) was administered to the tail vein of mice under anesthesia, and a fluorescence imaging experiment was carried out. In the present experiment, a microscope capable of acquiring fluorescence lifetime images as well as fluorescence intensity images (FLIM: fluorescence lifetime imaging microscope) was used.

[4] = Measurement of fluorescence lifetime in solvents; format: physicochemical
Experimental: The fluorescence lifetime (τf) of the compound in each solvent was measured using a compact fluorescence lifetime measurement apparatus (Quntaurus-Tau, manufactured by Hamamatsu Photonics K. K.).
The compounds of the present invention synthesized in the above Synthesis Examples (FIG. 4; DBC30, DBC30-Bu, and DBC30-Ph) contain an 8-dibutylaminocoumarine skeleton. […] The maximum absorption wavelength was found at 401 to 412 nm, and the maximum fluorescence wavelength was found at 467 to 484 nm, which corresponds to blue fluorescence. […] The fluorescence quantum yield was not less than 0.9 in any of the solvents.

[5] = Measurement of maximum absorption wavelength, maximum fluorescence wavelength and fluorescence quantum yield in solvents; format: physicochemical
Experimental: Using a luminescent quantum yield measurement apparatus ([…]-01, manufactured by Hamamatsu Photonics K. K.), the maximum absorption wavelength (λabs/nm), the maximum fluorescence wavelength (λflu/nm), and the fluorescence quantum yield (Φf) of the compound in each solvent were measured. […] The fluorescence quantum yield was not less than 0.9 in any of the solvents.

[6] = test system: lipid droplets in HeLa cells; experiment: Fluorescence imaging of lipid droplets in cultured cells (luminescence intensity vs Lipi-Blue); format: cell-based; conditions: 400 μM oleic acid 48 h, reagent 500 nM, 60 min, excitation 430 nm, compared with Lipi-Blue
Experimental: (§2) Fluorescence intensity imaging and fluorescence lifetime imaging were carried out using a confocal laser microscope (IX-73; manufactured by Olympus Corporation) equipped with a confocal scanner (DCS-120; Becker & Hickl).
Imaging of lipid droplets in cultured cells was studied by a comparative experiment on the performance between DBC30, DBC30-Bu, and DBC30-Ph, and a commercially available blue imaging reagent (Lipi-Blue). The investigated items were the luminescence intensity and the photostability.
Each fluorescent reagent was added to a final concentration of 500 nM to HeLa cells cultured for 48 hours in the presence of 400 μM oleic acid. Culture was then performed for 60 minutes, and the cultured cells were irradiated with an excitation light (DBC30, DBC30-Bu, DBC30-Ph, Lipi-Blue: 430 nm) required for the imaging, followed by observation using a confocal laser microscope.

[7] = test system: lipid droplets in the liver; experiment: Fluorescence intensity and lifetime imaging of liver lipid droplets in normal and fatty-liver model mice; format: in vivo, mice (BALB/cAJcl); conditions: 50 nmol, tail vein
Experimental: as §2
as §1, with “used. […]” for “used.”

[8] = test system: adipose tissues and lipid droplets; experiment: Fluorescence imaging of adipose tissues, skeletal muscle and kidney of a mouse; format: in vivo, mouse (BALB/cAJcl); conditions: 50 nmol
Experimental: as §2, §1
In an individual, various adipose tissues and lipid droplets are present. Their imaging was carried out using DBC30. […]

[9] = test system: lipid droplets in HeLa cells; experiment: Photostability in cells under repeated confocal scanning; format: cell-based; conditions: 400 μM oleic acid, 100 nM, 500 times of scanning, excitation 430 nm
Experimental: Photostability is an important factor in long-term measurement for, for example, tracing the processes of formation, fusion, and degradation of lipid droplets. Each fluorescent reagent was added to a final concentration of 100 nM (DBC30, C6-OBu, or BODIPY493/503) or 2 μM (Lipi-Blue) to HeLa cells cultured for 48 hours in the presence of 400 μM oleic acid. Culture was then performed for 30 minutes, and the cultured cells were irradiated with an excitation light (DBC30, DBC30-Bu, Lipi-Blue: 430 nm; BODIPY 493/503: 488 nm) required for the imaging, followed by acquisition of imaging images using a confocal laser microscope. The photostability was evaluated by 500 times of scanning in which a set of 50 times of scanning was repeated.

lipid droplets = experiment: Multicolor imaging with Mito Tracker Green and Lyso Tracker Red; format: cell-based; conditions: co-staining with Mito Tracker Green and Lyso Tracker Red
Text: Mito Tracker Green (excitation wavelength, 488 nm; observation wavelength, 510 to 560 nm), which is a green fluorescent reagent showing accumulation in mitochondria, and Lyso Tracker Red (excitation wavelength, 570 nm; observation wavelength, >590 nm), which is a red fluorescent reagent showing accumulation in lysosomes, were used.

[10] = 5 mM DMSO stock added at 10% to physiological saline supplemented with 10% bovine serum albumin
[11] = 5 mM DMSO stock added at volume ratio of 10% to physiological saline

SMILES	fluorescence wavelength [1]	lipid droplet selectivity (co-staining with BODIPY 493/503) [2]	precipitation [3, 10]	precipitation [3, 11]	τf (fluorescence lifetime) ([4]; in Bu2O (dibutyl ether))	τf (fluorescence lifetime) ([4]; in MeCN (acetonitrile))	λabs max ([5]; in Bu2O (dibutyl ether))	λflu max ([5]; in Bu2O (dibutyl ether))	φl (fluorescence quantum yield) ([5]; in Bu2O (dibutyl ether))	λabs max ([5]; in MeCN (acetonitrile))	λflu max ([5]; in MeCN (acetonitrile))	φl (fluorescence quantum yield) ([5]; in MeCN (acetonitrile))	fluorescence intensity in cells [6]	imaging of lipid droplets in liver ([7]; fatty-liver model mouse (Week 2))	imaging of lipid droplets in liver ([7]; mouse fed with a normal diet)	imaging of lipid droplets in kidney [8]	imaging of subcutaneous adipose tissue, abdominal adipose tissue, skeletal muscle and kidney [8]	photostability in cells [9]	use in multicolor imaging (lipid droplets)
CC1=CC(C)=[N+]2C1=C(C)c1c(C)cc(C)n1[B-]2(F)F [BODIPY 493/503]	about 500 nm																		
CCCCN(CCCC)c1ccc2cc(-c3nc4ccccc4n3-c3ccccc3)c(=O)oc2c1 [DBC30-Ph]		found to have lipid droplet selectivity	could be suppressed	precipitation of DBC30, DBC30-Bu, or DBC30-Ph occurs	2.29 ns	2.51 ns	399 nm	467 nm	0.92	412 nm	484 nm	0.92	higher fluorescence intensities than the HeLa cells to which Lipi-Blue was added						
CCCCN(CCCC)c1ccc2cc(-c3nc4ccccc4n3C)c(=O)oc2c1 [DBC30]		found to have lipid droplet selectivity	could be suppressed	precipitation of DBC30, DBC30-Bu, or DBC30-Ph occurs	2.29 ns	2.55 ns	404 nm	468 nm	0.93	410 nm	484 nm	0.90	higher fluorescence intensities than the HeLa cells to which Lipi-Blue was added	large lipid droplets were imaged over the entire liver surface	small lipid droplets could be found in hepatocytes	small lipid droplets distributed in tubular cells could be imaged	Fluorescence derived from DBC30 was found from sites where lipid is accumulated	higher photostability compared to the conventional reagents such as Lipi-Blue	can be used for multicolor imaging
